From patent publication US9796711B2, “Substituted pyrazolo[3,4-b]pyridin-6-carboxylic acids and method of use” (AbbVie S.àr.l., priority 2015, dated 2017)

What was measured:
Type in all cases: cell-based
CFTR ΔF508 = target: T1, CFTR ΔF508 (Homo sapiens, UniProt P13569, DEL508-508); test: Chronic TECC assay on primary bronchial epithelial cells (corrector, co-corrector and potentiator); settings: chronic TECC, AUC = full area under the curve upon forskolin stimulation, with co-corrector and potentiator, 24 hours
T1 construct: bronchial epithelial cells isolated from CF patients homozygous for the CFTR ΔF508 mutation; McGill University; Asterand; University of North Carolina hAEC-CF; host or cells: primary human bronchial epithelial cells from CF patients homozygous for ΔF508
Protocol: Primary Bronchial Epithelial Cells Protocol
The TECC (Tranepithelial Clamp Circuit, EP-design) assay measures the functionality of the cystic fibrosis Transmembrane Conductance regulator (CFTR) by measuring the short circuit current (Isc) generated over the basolateral and apical membrane of lung epithelial cells. In TECC the transepithelial potential PD and transepithelial resistance (Rt)) are measured in an open circuit and transformed to Ieq using Ohm's law. 24 Wells can be measured simultaneously allowing a higher throughput compared to Ussing chambers.
For this purpose, bronchial epithelial cells isolated from CF patients homozygous for the CFTR ΔF508 mutation (hAEC-CF, Epithelix, Geneva, Switzerland; McGill University, Montreal, Qc; Asterand, Detroit, Mich.; University of North Carolina, Chapel Hill, N.C.) are plated on type IV collagen-coated Transwell® supports (Costar). Human airway epithelia are generated by provision of an air-liquid interface for 21 days to form well-differentiated polarized cultures that resemble in vivo pseudo-stratified ciliated epithelium (Fulcher, M. L., Gabriel, S., Burns, K. A., Yankaskas, J. R., Randell, S. H., 2005. Well-differentiated human airway epithelial cell cultures. Methods Mol. Med. 107, 183-206). The differentiated cells are treated with test corrector compound(s) (corrector alone or in combination with co-corrector, 4-[(2R,4R)-4-({[1-(2,2-difluoro-1,3-benzodioxol-5-yl)cyclopropyl]carbonyl}amino)-7-methoxy-3,4-dihydro-2H-chromen-2-yl]benzoic acid (G924806/A-1618261) (“acute”) or test corrector compounds, co-corrector and potentiator, N-(3-carbamoyl-5,5,7,7-tetramethyl-4,7-dihydro-5H-thieno[2,3-c]pyran-2-yl)-1H-pyrazole-5-carboxamide GLPG1837, (“chronic”) for 24 hours basolaterally to allow sufficient expression of properly folded CFTR protein on the membrane. All compound plates contained negative controls (DMSO) and positive controls (0.15 μM, 4-[(2R,4R)-4-({[1-(2,2-difluoro-1,3-benzodioxol-5-yl)cyclopropyl]carbonyl}amino)-7-(difluoromethoxy)-3,4-dihydro-2H-chromen-2-yl]benzoic acid).
For electrophysiological recording of the “chronic” experiments, the human airway epithelia are mounted in the TECC heating plate for electrophysiological measurement and kept at 37° C. The epithelia are bathed in a NaCl-Ringer solution (120 mM NaCl, 25 mM NaHCO3, 1.2 mM CaCl2, 1.2 mM MgCl2, 0.8 mM KH2PO4, 0.8 mM K2HPO4, pH 7.4, 5 mM glucose) on both the basolateral and apical sides. Test compounds (corrector, co-corrector, 4-[(2R,4R)-4-({[1-(2,2-difluoro-1,3-benzodioxol-5-yl)cyclopropyl]carbonyl}amino)-7-(difluoromethoxy)-3,4-dihydro-2H-chromen-2-yl]benzoic acid, and potentiator, N-(3-carbamoyl-5,5,7,7-tetramethyl-4,7-dihydro-5H-thieno[2,3-c]pyran-2-yl)-1H-pyrazole-5-carboxamide), are re-added to the recording solution prior to measurement. Apical amiloride is used to inhibit the endogenous ENaC currents while forskolin is applied on both apical and basolateral side to stimulate CFTR. Measurements are done during a 20 minute timeframe with recordings every 2 minutes. The increase in Ieq is used as a measure for the increased CFTR activity, EC50 values can be generated by measuring impact of different concentrations of compound on Ieq on primary cells, for this purpose each transwell is treated with a different compound concentration. Inhibitor-172, an inhibitor specific for CFTR, is used to test the specificity of the tested compounds. Raw data were normalized to percentage activity values using the equation: 100×(Sample−Negative control)/(Positive control−Negative Control).

ΔF508-CFTR [1] = target: T2, ΔF508-CFTR (Homo sapiens, UniProt P13569, DEL508-508); test: CFTR cell surface levels using HRP-tagged ΔF508-CFTR expressing CFBE cells, in the presence of a co-corrector; settings: HRP-tagged ΔF508-CFTR expressing CFBE cells, in the presence of 3 μM co-corrector; for EC50: read-out: EC50
T2 construct: host or cells: CFBE41o-, doxycycline-inducible
Summary of the method: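 Cells were seeded with 0.5 μg/mL doxycycline and held 68 h at 37 °C. Test compounds plus 3 μM co-corrector (final 0.1% DMSO) were then added for 20 h at 33 °C. Washed cells received HRP substrate, and luminescence was normalized between DMSO and 3 μM co-corrector controls.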

ΔF508-CFTR [2] = target: T2, ΔF508-CFTR; test: CFTR cell surface levels using HRP-tagged ΔF508-CFTR expressing CFBE cells, intrinsic corrector capacity; settings: for EC50: read-out: EC50
Summary of the method: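 Here the cells express ΔF508-CFTR with horseradish peroxidase inserted in extracellular loop 4, so only rescued channel at the surface gives luminescent signal. Compounds act on their own, 20 h at the reduced temperature of 33 °C; values are percent activity relative to DMSO and a 3 μM corrector.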

[3] = HRP-tagged ΔF508-CFTR CFBE41o- cells, compounds alone (intrinsic corrector capacity), 20 hours at 33° C., positive control 3 μM corrector
[4] = HRP-tagged ΔF508-CFTR CFBE41o- cells, compounds alone (intrinsic corrector capacity), 20 hours at 33° C.
[5] = HRP-tagged ΔF508-CFTR expressing CFBE cells, intrinsic corrector capacity (no co-corrector), 33° C., 20 hours

T2 sequence (P13569 with tags, fused parts or gaps DEL508-508): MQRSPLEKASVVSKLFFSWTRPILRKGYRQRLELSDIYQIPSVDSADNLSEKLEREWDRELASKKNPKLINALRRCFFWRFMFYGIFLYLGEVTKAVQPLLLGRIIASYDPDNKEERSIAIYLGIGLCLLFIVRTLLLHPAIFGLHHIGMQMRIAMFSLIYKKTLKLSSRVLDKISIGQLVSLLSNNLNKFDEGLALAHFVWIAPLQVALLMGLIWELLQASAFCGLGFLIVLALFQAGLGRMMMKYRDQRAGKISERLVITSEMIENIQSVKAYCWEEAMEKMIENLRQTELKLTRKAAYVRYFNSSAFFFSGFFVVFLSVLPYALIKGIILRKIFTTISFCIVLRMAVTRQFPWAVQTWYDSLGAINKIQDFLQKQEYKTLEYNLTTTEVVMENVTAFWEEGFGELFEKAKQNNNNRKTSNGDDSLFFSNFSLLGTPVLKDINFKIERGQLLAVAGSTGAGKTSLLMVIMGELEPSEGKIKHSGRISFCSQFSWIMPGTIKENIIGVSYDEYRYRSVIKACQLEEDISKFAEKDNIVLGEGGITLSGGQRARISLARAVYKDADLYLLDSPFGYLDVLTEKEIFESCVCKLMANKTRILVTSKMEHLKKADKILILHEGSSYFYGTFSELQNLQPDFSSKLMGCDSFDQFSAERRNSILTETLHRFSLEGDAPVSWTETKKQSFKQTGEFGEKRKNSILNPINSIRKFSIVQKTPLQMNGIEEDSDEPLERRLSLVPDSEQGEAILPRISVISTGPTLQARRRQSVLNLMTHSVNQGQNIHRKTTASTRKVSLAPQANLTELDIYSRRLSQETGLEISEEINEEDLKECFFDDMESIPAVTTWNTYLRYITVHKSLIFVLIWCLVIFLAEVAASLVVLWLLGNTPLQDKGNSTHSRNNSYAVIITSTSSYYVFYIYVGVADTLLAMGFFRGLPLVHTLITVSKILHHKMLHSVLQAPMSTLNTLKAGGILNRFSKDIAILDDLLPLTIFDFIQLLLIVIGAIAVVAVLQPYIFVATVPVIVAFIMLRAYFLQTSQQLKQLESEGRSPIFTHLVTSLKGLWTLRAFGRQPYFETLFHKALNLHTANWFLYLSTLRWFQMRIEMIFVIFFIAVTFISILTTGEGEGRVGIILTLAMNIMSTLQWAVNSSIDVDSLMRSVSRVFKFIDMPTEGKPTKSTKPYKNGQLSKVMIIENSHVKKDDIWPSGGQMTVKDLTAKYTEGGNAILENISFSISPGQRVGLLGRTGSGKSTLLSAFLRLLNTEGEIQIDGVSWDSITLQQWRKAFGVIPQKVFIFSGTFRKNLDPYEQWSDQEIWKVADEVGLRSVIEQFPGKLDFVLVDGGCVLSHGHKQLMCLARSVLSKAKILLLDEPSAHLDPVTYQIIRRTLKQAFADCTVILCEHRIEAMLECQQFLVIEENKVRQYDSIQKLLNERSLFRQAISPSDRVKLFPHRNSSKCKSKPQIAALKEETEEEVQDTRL
T1 sequence (P13569 with tags, fused parts or gaps DEL508-508): as above

| Compound | EC50 (CFTR ΔF508; read-out: EC50 (nM) (AUC)) | % Activation (ΔF508-CFTR [1]) | EC50 (ΔF508-CFTR [1]) | % Activity at 1 μM (AUC**) (CFTR ΔF508; 1 μM) | % Activation (ΔF508-CFTR [2]; [3]) | EC50 (ΔF508-CFTR [2]; [4]) | % Activation (ΔF508-CFTR [2]; [5]) | EC50 (ΔF508-CFTR [2]; [5]) |
| --- | --- | --- | --- | --- | --- | --- | --- | --- |
| COCC1CCN(c2cc(C(=O)O)nc3c2c(C2CCC2)nn3-c2ccc(F)cc2)CC1 [compound 657, 3-cyclobutyl-1-(4-fluorophenyl)-4-[4-(methoxymethyl)piperidin-1-yl]-1H-pyrazolo[3,4-b]pyridine-6-carboxylic acid] | 78 nM | 543% | 306 nM |  |  |  |  |  |
| O=C(O)c1cc(N2CCN(c3ccncc3)CC2)c2c(C3CCC3)nn(C3CCCCC3)c2n1 [compound 809, 3-cyclobutyl-1-cyclohexyl-4-[4-(pyridin-4-yl)piperazin-1-yl]-1H-pyrazolo[3,4-b]pyridine-6-carboxylic acid] |  | 452.2% | 184 nM | 186.6667% |  |  |  |  |
| Cc1nn(-c2ccccc2)c2nc(C(=O)O)cc(O[C@H]3C[C@@H](N4CCCCC4)C3)c12 [compound 346, 3-methyl-1-phenyl-4-{[cis-3-(piperidin-1-yl)cyclobutyl]oxy}-1H-pyrazolo[3,4-b]pyridine-6-carboxylic acid] |  | 151.2% | 4170 nM |  | 20.555% | 7500 nM |  |  |
| Cc1cccc(-n2nc(C(C)C)c3c(N4CCC5C(CCN5CC#N)C4)cc(C(=O)O)nc32)c1 (stereo not shown) [compound 256, 4-[1-(cyanomethyl)octahydro-5H-pyrrolo[3,2-c]pyridin-5-yl]-1-(3-methylphenyl)-3-(propan-2-yl)-1H-pyrazolo[3,4-b]pyridine-6-carboxylic acid] |  | 362.25% | 2050 nM |  | 180% | 3340 nM |  |  |
| COCC1(C)CN(c2cc(C(=O)O)nc3c2c(C2CCC2)nn3-c2ccccc2)C1 [compound 521, 3-cyclobutyl-4-[3-(methoxymethyl)-3-methylazetidin-1-yl]-1-phenyl-1H-pyrazolo[3,4-b]pyridine-6-carboxylic acid] |  | 216.55% | 290 nM |  |  |  | 58.57% | 488 nM |
| CC(C)c1nn(-c2cc(F)cc(F)c2)c2nc(C(=O)O)cc(-c3cnc(N(C)C4CCOCC4)nc3)c12 [compound 317, 1-(3,5-difluorophenyl)-4-{2-[methyl(oxan-4-yl)amino]pyrimidin-5-yl}-3-(propan-2-yl)-1H-pyrazolo[3,4-b]pyridine-6-carboxylic acid] |  | 433.4% | 972 nM |  | 216.25% | 695 nM |  |  |
| Cc1nn(-c2ccccc2)c2nc(C(=O)O)cc(OCC(=O)N3CCCCC3)c12 [compound 383, 3-methyl-4-[2-oxo-2-(piperidin-1-yl)ethoxy]-1-phenyl-1H-pyrazolo[3,4-b]pyridine-6-carboxylic acid] |  | 129.7% | 5010 nM |  | 16.587% | 5010 nM |  |  |
| Cc1nn(-c2ccccc2)c2nc(C(=O)O)cc(-c3ccc(NC4CCC4)cc3)c12 [compound 96, 4-[4-(cyclobutylamino)phenyl]-3-methyl-1-phenyl-1H-pyrazolo[3,4-b]pyridine-6-carboxylic acid] |  | 329.75% | 1200 nM |  | 141.5% | 1530 nM |  |  |
| CC(C)c1nn(-c2cccc(N(C)C)c2)c2nc(C(=O)O)cc(-c3ccc(N4CCC(C#N)CC4)nc3)c12 [compound 177] |  | 606.47% | 689 nM |  | 364.43% | 701 nM |  |  |
| O=C(O)c1cc(N2CC(N3CCOC3=O)C2)c2c(C3CCC3)nn(-c3ccccc3)c2n1 [compound 529, 3-cyclobutyl-4-[3-(2-oxo-1,3-oxazolidin-3-yl)azetidin-1-yl]-1-phenyl-1H-pyrazolo[3,4-b]pyridine-6-carboxylic acid] |  | 126.7% | > 10000 nM |  |  |  | 5.039% | > 10000 nM |
| Cc1nn(-c2ccccc2)c2nc(C(=O)O)cc(-c3ccc(N(C)C4COC4)cc3)c12 [compound 140, 3-methyl-4-{4-[methyl(oxetan-3-yl)amino]phenyl}-1-phenyl-1H-pyrazolo[3,4-b]pyridine-6-carboxylic acid] |  | 362.05% | 941 nM |  | 178% | 1500 nM |  |  |
| COC1CCN(c2ccc(-c3cc(C(=O)O)nc4c3c(C(C)C)nn4C3CCCCC3)cn2)C1 (stereo not shown) [compound 224, 1-cyclohexyl-4-[6-(3-methoxypyrrolidin-1-yl)pyridin-3-yl]-3-(propan-2-yl)-1H-pyrazolo[3,4-b]pyridine-6-carboxylic acid] |  | 396.65% | 896 nM |  | 189.6% | 1180 nM |  |  |
